Results as given in patent publication US7192906B2, “Substituted pyrazole derivatives, production process thereof, and herbicide compositions containing the derivatives” (SDS Biotech K.K., priority 2001, dated 2007).

system: Echinochloa crusgalli; assay: Test Example 3 paddy field treatment; type: in vivo; details: Table 6, paddy field treatment, active ingredient 1 kg per hectare, 21st day after dropping, index 0-5
Procedure: (§1) A plastic pot of 130 cm^2 was filled with paddy soil, and soil puddling was carried out to adjust the submerged depth to 4 cm. Subsequently, seeds of Echinochloa crusgalli, Monochoria vaginalis, Ammannia multiflora and Scirpus juncoides were sowed, and rice (Oryza sative, variety: Koshihikari) of two-leaf period was transplanted by 2 rice plants of 1 stub per pot at a depth of 3 cm. On the 10th day after the transplantation, the wettable powder prepared in Formulation Example 1 was diluted with water such that the amount of the active ingredient became 1 kg per hectare, and then dropped to diffuse on the water surface. On the 21st day after the dropping, observation and evaluation were carried out according to the aforesaid criteria.
(§2) Herbicidal activity was evaluated based on the following criteria.
(§3) • 5: herbicidal effect of not less than 90%, or phytotoxicity of 90% or more • 4: herbicidal effect of not less than 70% and less than 90%, or phytotoxicity of 70% or more and less than 90% • 3: herbicidal effect of not less than 50% and less than 70%, or phytotoxicity of 50% or more and less than 70% • 2: herbicidal effect of not less than 30% and less than 50%, or phytotoxicity of 30% or more and less than 50% • 1: herbicidal effect of not less than 10% and less than 30%, or phytotoxicity of 10% or more and less than 30% • 0: herbicidal effect of not less than 0% and less than 10%, or phytotoxicity of 0% or more and less than 10%

Row | Compound | Herbicidal activity EC
1 | CNC(=O)C(Cn1cc(C)c(-c2ccc(F)c(C(F)(F)F)c2)n1)=NOC [Compound 90] | 5 (herbicidal effect of not less than 90%, or phytotoxicity of 90% or more)
2 | CNC(=O)C(Cn1cc(C)c(-c2ccc(OC)cc2OC(F)F)n1)=NOC [Compound 91] | 5 (herbicidal effect of not less than 90%, or phytotoxicity of 90% or more)
3 | CON=C(Cn1cc(C)c(-c2ccccc2)n1)C(=O)N1CCCCC1 [Compound 119] | 3 (herbicidal effect of not less than 50% and less than 70%, or phytotoxicity of 50% or more and less than 70%)
4 | CON=C(Cn1cc(C)c(-c2ccccc2)n1)C(=O)NNC(=O)OC [Compound 123] | 3 (herbicidal effect of not less than 50% and less than 70%, or phytotoxicity of 50% or more and less than 70%)

system: Scirpus juncoides; assay: Test Example 3 paddy field treatment; type: in vivo; details: Table 6, paddy field treatment, active ingredient 1 kg per hectare, 21st day after dropping, index 0-5
Procedure: as §1, §2, §3

Row | Compound | Herbicidal activity SJ
5 | CNC(=O)C(Cn1cc(C)c(-c2ccc(F)c(C(F)(F)F)c2)n1)=NOC [Compound 90] | 4 (herbicidal effect of not less than 70% and less than 90%, or phytotoxicity of 70% or more and less than 90%)
6 | CNC(=O)C(Cn1cc(C)c(-c2ccc(OC)cc2OC(F)F)n1)=NOC [Compound 91] | 4 (herbicidal effect of not less than 70% and less than 90%, or phytotoxicity of 70% or more and less than 90%)
7 | CON=C(Cn1cc(C)c(-c2ccccc2)n1)C(=O)N1CCCCC1 [Compound 119] | 3 (herbicidal effect of not less than 50% and less than 70%, or phytotoxicity of 50% or more and less than 70%)
8 | CON=C(Cn1cc(C)c(-c2ccccc2)n1)C(=O)NNC(=O)OC [Compound 123] | 3 (herbicidal effect of not less than 50% and less than 70%, or phytotoxicity of 50% or more and less than 70%)

system: Ammannia multiflora; assay: Test Example 3 paddy field treatment; type: in vivo; details: Table 6, paddy field treatment, active ingredient 1 kg per hectare, 21st day after dropping, index 0-5
Procedure: as §1, §2, §3

Row | Compound | Herbicidal activity AM
9 | CNC(=O)C(Cn1cc(C)c(-c2ccc(F)c(C(F)(F)F)c2)n1)=NOC [Compound 90] | 5 (herbicidal effect of not less than 90%, or phytotoxicity of 90% or more)
10 | CNC(=O)C(Cn1cc(C)c(-c2ccc(OC)cc2OC(F)F)n1)=NOC [Compound 91] | 5 (herbicidal effect of not less than 90%, or phytotoxicity of 90% or more)
11 | CON=C(Cn1cc(C)c(-c2ccccc2)n1)C(=O)N1CCCCC1 [Compound 119] | 4 (herbicidal effect of not less than 70% and less than 90%, or phytotoxicity of 70% or more and less than 90%)
12 | CON=C(Cn1cc(C)c(-c2ccccc2)n1)C(=O)NNC(=O)OC [Compound 123] | 4 (herbicidal effect of not less than 70% and less than 90%, or phytotoxicity of 70% or more and less than 90%)

system: Monochoria vaginalis; assay: Test Example 3 paddy field treatment; type: in vivo; details: Table 6, paddy field treatment, active ingredient 1 kg per hectare, 21st day after dropping, index 0-5
Procedure: as §1, §2, §3

Row | Compound | Herbicidal activity MV
13 | CNC(=O)C(Cn1cc(C)c(-c2ccc(F)c(C(F)(F)F)c2)n1)=NOC [Compound 90] | 5 (herbicidal effect of not less than 90%, or phytotoxicity of 90% or more)
14 | CNC(=O)C(Cn1cc(C)c(-c2ccc(OC)cc2OC(F)F)n1)=NOC [Compound 91] | 5 (herbicidal effect of not less than 90%, or phytotoxicity of 90% or more)
15 | CON=C(Cn1cc(C)c(-c2ccccc2)n1)C(=O)N1CCCCC1 [Compound 119] | 4 (herbicidal effect of not less than 70% and less than 90%, or phytotoxicity of 70% or more and less than 90%)
16 | CON=C(Cn1cc(C)c(-c2ccccc2)n1)C(=O)NNC(=O)OC [Compound 123] | 4 (herbicidal effect of not less than 70% and less than 90%, or phytotoxicity of 70% or more and less than 90%)

system: Rice (Oryza sativa); assay: Test Example 3 paddy field treatment, crop phytotoxicity; type: in vivo; details: Table 6, paddy field treatment, transplanted rice, active ingredient 1 kg per hectare, 21st day after dropping, index 0-5
Procedure: as §1, §2, §3

Row | Compound | Herbicidal activity (phytotoxicity) OS
17 | CNC(=O)C(Cn1cc(C)c(-c2ccc(F)c(C(F)(F)F)c2)n1)=NOC [Compound 90] | 0 (herbicidal effect of not less than 0% and less than 10%, or phytotoxicity of 0% or more and less than 10%)
18 | CNC(=O)C(Cn1cc(C)c(-c2ccc(OC)cc2OC(F)F)n1)=NOC [Compound 91] | 0 (herbicidal effect of not less than 0% and less than 10%, or phytotoxicity of 0% or more and less than 10%)
19 | CON=C(Cn1cc(C)c(-c2ccccc2)n1)C(=O)N1CCCCC1 [Compound 119] | 0 (herbicidal effect of not less than 0% and less than 10%, or phytotoxicity of 0% or more and less than 10%)
20 | CON=C(Cn1cc(C)c(-c2ccccc2)n1)C(=O)NNC(=O)OC [Compound 123] | 0 (herbicidal effect of not less than 0% and less than 10%, or phytotoxicity of 0% or more and less than 10%)
